{"source": "patent US8673882B2", "about": "“Inhibitors of autotaxin” (University of Tennessee Research Foundation, priority 2011, dated 2014)", "key": {"[1]": {"test_system": "MM1 hepatocarcinoma cells", "test": "Invasion of mesothelial cell monolayer by MM1 cells", "format": "cell-based, rat", "excerpt": "(§1) Cancer metastasis is a complex process that cannon be accurately modeled in vitro. Models that utilize cellular monolayers for the invasion of carcinoma cell come the closest to the situation in vivo. Two different cell monolayers, mouse mesothelium and human vascular endothelium were used to examine the role of ATX in the invasion of MM1 hepatocarcinoma cells and the reduction of such invasion by the chemical compounds of the present application. The mesothelial monolayer is an accepted model for invasion of body cavities lined by serous cells whereas, the HUVEC monolayer is considered to be an in vitro model of hematogenous invasion of carcinomas.\n(§2) Highly invasive MM1 cells originally isolated from the AH130 rat hepatoma cells were utilized in these studies. The cells were grown in suspension in DMEM supplemented with 10% fetal bovine serum, 2 mM glutamine, 100 units/ml penicillin and 10 μg/ml streptoinycin. Mesothelial cells were isolated and cultured from C57BL/6 mice. Human umbilical cord vascular endothelial cells (HUVEC) were obtained from VEC Technologies Inc., (Rensselaer, N.Y., USA) and were grown in MCDB-131 complete medium containing 10% fetal bovine serum. 90 μg/ml heparin, 10 ng/ml EGF, 1 μg/ml hydrocortisone, 0.2 mg/ml EndoGrowth supplement, 100 units/ml penicillin G, 100 μg/ml streptomycin and 25 μg/ml amphotericin B (all from VEC Technologies). Tumor cell invasion was performed by seeding 1.3×10^5 HUVECs (passage 7) into each well of a 12-well plate pre-coated with 0.2% gelatin (Sigma) and cultured for 2 days to form a confluent monolayer. Mesothelial cells harvested from two-three mice were initially plated in 6-well plates and grown to confluency in DMEM medium supplemented with 10% fetal bovine serum in the presence of 100 units/ml penicillin G and 10 μg/ml streptomycin. When confluent, the mesothelial cells were split into three equal aliquots (˜5×10^4 cells each) and plated to three wells of a 12-well plate and grown to confluence.\nInvasion of MM1 cells of Example 53 was determined and the effect of compounds of the present application in reducing the invasion was determined. For all invasion assays, MM1 cells were pre-stained with 2 μg/ml calcein AM (Invitrogen, USA) for 2 h, rinsed once, and seeded at a density of 5×10^4 cells/well over the monolayers. […] The number of tumor cells that penetrated the monolayer was photographed under a NIKON TiU inverted microscope using phase-contrast and fluorescence illumination in a minimum of five non-overlapping fields at 100× magnification. The fluorescent images were overlayed on top of the phase contrast images using the Elements BR software (version 3.1x) and the invaded MM1 cells showing the characteristic flattened morphology in the plane of focus underneath the monolayer were counted. […]"}, "[2]": {"test_system": "MM1 hepatocarcinoma cells", "test": "Invasion of HUVEC monolayer by MM1 cells", "format": "cell-based, rat", "conditions": "1.5 μM LPC; FIG. 14", "excerpt": "as §1, §2\nInvasion of MM1 cells of Example 53 was determined and the effect of compounds of the present application in reducing the invasion was determined. For all invasion assays, MM1 cells were pre-stained with 2 μg/ml calcein AM (Invitrogen, USA) for 2 h, rinsed once, and seeded at a density of 5×10^4 cells/well over the monolayers. Tumor cells were left to invade the HUVEC monolayer for 24 h in MCDB-131 complete media containing 1% serum with or without addition of 1.5 μM LPC. MM1 cells were plated on the mesothelial monolayers in 2% fetal bovine serum-supplemented DMEM medium in the presence of 100 units/ml penicillin G and 10 μg/ml streptomycin with or without 1.5 μM LPC (5 μM for the mesothelium cells) and invasion was allowed to proceed for 20 h. The day after MM1 cell seeding, non-invaded tumor cells were removed by repeated five rinses of the HUVEC monolayer (three rinses for the mesothelial monolayers) with PBS (containing Ca^2+ and Mg^2+) followed by fixation with 10% buffered formalin. The number of tumor cells that penetrated the monolayer was photographed under a NIKON TiU inverted microscope using phase-contrast and fluorescence illumination in a minimum of five non-overlapping fields at 100× magnification. The fluorescent images were overlayed on top of the phase contrast images using the Elements BR software (version 3.1x) and the invaded MM1 cells showing the characteristic flattened morphology in the plane of focus underneath the monolayer were counted. […]"}, "breast and colon cancers": {"test_system": "breast and colon cancers", "conditions": "xenograft models, Zhang et al 2009; cited from earlier work"}}}
{"compound": "CCCCCCCCCCCCCc1ccc2cc(CP(=O)(OC)OC)ccc2c1", "note": "[Compound 33b, Dimethyl-6-tridecylnaphthalen-2-yl-methylphosphonate]", "values": [{"measurement": "MM1 cell invasion of the mesothelial monolayer", "setting": "[1]; with LPC, FIG. 12 panel E", "value": "inhibition"}, {"measurement": "LPC-dependent invasion of the HUVEC monolayer", "setting": "[2]", "value": "blockage"}]}
{"compound": "LPA bromophosphonate [LPA-BP]", "values": [{"measurement": "metastasis of breast and colon cancers", "setting": "breast and colon cancers", "value": "inhibit the metastasis"}]}
{"compound": "lysophosphatidylcholine [LPC, reference compound]", "values": [{"measurement": "effect of LPC on invasion in the co-culture", "setting": "[1]; FIG. 12d, mesothelial cell layers", "value": "increases invasion in a dose-dependent manner"}]}
